Tests used:
[1] = test system: healthy volunteers; assay: Scintigraphic gastrointestinal and colonic transit, CDC study; format: in vivo, human; details: for AC t1/2 (ascending colon emptying) / CF 6 (colonic filling at 6 hours) / GC 4 (colonic geometric center) / GC 24 (colonic geometric center at 24 hours) / GC 48 (colonic geometric center at 48 hours) / GE t1/2: N = 20, mean ± SEM
Protocol: A double-blind, placebo-controlled, parallel-group, randomized study was conducted to evaluate the effects of oral sodium chenodeoxycholate (CDC) or placebo, once daily for 4 days, in healthy volunteers. In a second trial, oral colesevelam hydrochloride or placebo were administered for 12-14 days in patients with diarrhea-predominant irritable bowel syndrome (IBS-D). The study was approved by a review board and all participants signed informed consent. In both studies, allocation was concealed from the study investigators. In the first trial, participants were randomized to placebo, CDC 500 mg, or 1000 mg (20 per group). Sodium CDC (unconjugated) was purchased from Calbiochem (EMD Biosciences Inc., San Diego, Calif. 92121), and the Mayo pharmacy prepared identical placebo and CDC capsules, all of which were coated with the pH sensitive polymer, methacrylate (Eudragit® S-100, Rohm Pharmaceuticals, Darmstadt D-64293, Germany). The latter dissolves at the neutral pH found in the distal ileum and was used to ensure ileocolonic delivery of the CDC or placebo. All participants were screened for idiopathic bile acid malabsorption (BAM) with fasting serum 7alpha-hydroxy-4-cholesten-3-one (7αC4). 60 patients (mean age 38.7 years, 43 female) were enrolled to the study. Three groups (n=20 each) were randomized to one oral capsule daily containing placebo, 500 mg, or 1000 mg CDC, each for a period of 4 days. Gastrointestinal (GI) and colonic transit was conducted by a scintigraphic method (Burton et al., J. Nucl. Med., 38:1807-1810 (1997) and Cremonini et al., Aliment Pharmacol. Ther., 16:1781-1790 (2002)) during the last 48 hours of drug ingestion. An adaptation of an established scintigraphic method was used to measure gastrointestinal and colonic transit (Burton et al., J. Nucl. Med., 38:1807-1810 (1997) and Cremonini et al., Aliment Pharmacol. Ther., 16:1781-1790 (2002)). Patients with IBS-D had baseline measurement of colonic transit since this is known to be a significant covariate in treatment responses. The primary endpoints were the colonic geometric center (GC) at 24 hours (GC 24) and ascending colon (AC) emptying t1/2. […] The capsule was ingested following an overnight fast. After the capsule emptied from the stomach, a 99 mTc-sulfur colloid radiolabeled meal was ingested. It consisted of two scrambled eggs, one slice of whole wheat bread, and one glass of whole milk. This meal allowed measurement of gastric and small bowel transit. Subjects ingested standardized meals for lunch and dinner at 4 and 8 hours after the radiolabeled meal, respectively. Abdominal scans were obtained every hour for the first 6 hours (the first 4 hours for the assessment of gastric emptying) and at 8, 24, and 48 hours after ingestion of the ^111In capsule. The counts in the stomach and each of four colonic regions, ascending, transverse, descending, and combined sigmoid and rectum, were quantitated with a variable region of interest program. Counts were corrected for isotope decay, tissue attenuation, and downscatter of ^111In counts in the 99 mTc window. Gastric emptying t1/2 is a measure of the time for 50% of the radiolabeled meal (identifiable by radiolabeled tracer) to empty from the stomach. Colonic filling at 6 hours, or the proportion of the radiolabeled meal to have reached the colon at 6 hours, is an indirect measurement of small bowel transit time. Overall colonic transit was summarized as the colonic geometric center (GC) at specified times. The GC is the weighted average of counts in the different colonic regions (ascending (AC), transverse (TC), descending (DC), rectosigmoid (RS)) and stool, respectively 1 to 5. At any time, the proportion of counts in each colonic region is multiplied by its weighting factor as follows: (%AC×1+%TC×2+%DC×3+%RS×4+%stool×5)/100=GC Thus, a higher GC reflects a faster colonic transit. Ascending colon emptying was summarized by the t1/2 calculated by linear interpolation of values on the AC emptying curve.

[2] = test system: healthy volunteers; design: species or system human; details: in vivo
Protocol: An independent statistician, who otherwise was not involved in the study, generated the randomization codes, and the allocation was concealed. All clinical and laboratory study personnel were blinded throughout the study until all data were locked and analyzed. Clinical safety monitoring was conducted by the study investigators throughout the study. 60 patients (mean age 38.7 years, 43 female) were enrolled to the study. Three groups (n=20 each) were randomized to one oral capsule daily containing placebo, 500 mg, or 1000 mg CDC, each for a period of 4 days. Gastrointestinal (GI) and colonic transit was conducted by a scintigraphic method (Burton et al., J. Nucl. Med., 38:1807-1810 (1997) and Cremonini et al., Aliment Pharmacol. Ther., 16:1781-1790 (2002)) during the last 48 hours of drug ingestion.

[3] = test system: healthy volunteers; assay: Daily stool diaries (bowel function), CDC study; format: in vivo, human; details: for Ease of passage (scale1-7) / Stool consistency by Bristol Stool Form Scale / Stool frequency per day: N = 20, mean ± SEM
Protocol: 60 patients (mean age 38.7 years, 43 female) were enrolled to the study. Three groups (n=20 each) were randomized to one oral capsule daily containing placebo, 500 mg, or 1000 mg CDC, each for a period of 4 days. Gastrointestinal (GI) and colonic transit was conducted by a scintigraphic method (Burton et al., J. Nucl. Med., 38:1807-1810 (1997) and Cremonini et al., Aliment Pharmacol. Ther., 16:1781-1790 (2002)) during the last 48 hours of drug ingestion. All participants completed bowel function diaries that documented the time of each bowel movement, stool consistency (Bristol Stool Form Scale), the ease of passage (ranging from 1=“manual disimpaction” to 7=“incontinence”), and completeness of evacuation (1=“yes” and 0=“no”). In the first study, patients recorded diaries during at least 3 days of the baseline period and the 4 days of treatment. The diaries were recorded for at least 3 days of the baseline period and during the entire treatment period of the second study.

[4] = CDC 500 mg once daily for 4 days
[5] = CDC 1000 mg once daily for 4 days

In the case of `C[C@H](CCC(=O)[O-])[C@H]1CC[C@H]2[C@@H]3[C@H](O)C[C@@H]4C[C@H](O)CC[C@]4(C)[C@H]3CC[C@]12C.[Na+]` [CDC, sodium chenodeoxycholate], the “AC t1/2 (ascending colon emptying)” value [1, 4] is reported as 12.1 ± 2.1 h, the “CF 6 (colonic filling at 6 hours)” value [1, 4] is reported as 49.6 ± 7.0% and the “GC 4 (colonic geometric center)” value [1, 4] is reported as 0.87 ± 0.18. For the same compound, the “GC 24 (colonic geometric center at 24 hours)” value [1, 4] was 2.80 ± 0.27, the “GC 48 (colonic geometric center at 48 hours)” value [1, 4] was 4.10 ± 0.21 and the “GE t1/2” value [1, 4] was 2.115 ± 0.0883 h. The “Treatment effect on colonic filling at 6 hours (in words)” value ([1]; CDC 500 mg or 1000 mg vs placebo) was “not detected”, the “AC t1/2 (ascending colon emptying)” value [1, 5] was 10.7 ± 1.9 h and the “CF 6 (colonic filling at 6 hours)” value [1, 5] was 46.0 ± 7.1%. For the same compound, the “GC 4 (colonic geometric center)” value [1, 5] was 1.27 ± 0.33, the “GC 24 (colonic geometric center at 24 hours)” value [1, 5] was 3.76 ± 0.30 and the “GC 48 (colonic geometric center at 48 hours)” value [1, 5] was 4.92 ± 0.05. For the same compound, the “GE t1/2” value [1, 5] was 2.383 ± 0.235 h, the “Effect on colonic transit (GC) at 24 and 48 hours (in words)” value ([1]; FIG. 3, 1000 mg p<0.0001, 500 mg p<0.01 vs placebo) was “overall acceleration of colonic transit” and the “Adverse event: headache, rate” value [2] was 20-25%. For the same compound, the “Adverse events: gas, bloating and nausea, participants” value [2] was 5-20%, the “Ease of passage (scale1-7)” value [3, 4] was 4.1 ± 0.06 and the “Stool consistency by Bristol Stool Form Scale” value [3, 4] was 4.29 ± 0.19. The “Stool frequency per day” value [3, 4] was 1.50 ± 0.18 per day, the “Effect on sense of complete evacuation (in words)” value ([3]; CDC 500 mg or 1000 mg vs placebo, p=0.02) was “significant overall treatment effects” and the “Ease of passage (scale1-7)” value [3, 5] was 4.3 ± 0.06. For the same compound, the “Stool consistency by Bristol Stool Form Scale” value [3, 5] was 4.80 ± 0.15, the “Stool frequency per day” value [3, 5] was 2.01 ± 0.15 per day and the “Effect on stool form/consistency (in words)” value ([3]; FIG. 3, p<0.0001) was “more liquid consistency stool”. For the same compound, the “Effect on stool frequency (in words)” value ([3]; FIG. 3, p<0.001) was “increase in stool frequency”.
